Source: patent publication US8486958B2, “Crystalline forms of a 3-carboxypropyl-aminotetralin compound” (priority 2008, dated 2013)

Legend:
[1] = target: T1, human mu opioid receptor (Homo sapiens, UniProt P35372); test: Radioligand binding assay, [3H]-Diprenorphine displacement, CHO-K1 membranes
T1 construct: expressed in transfected cells; host or cells: CHO-K1

[2] = test system: motility of the gastrointestinal (GI) tract; test: Gastrointestinal motility in animal models; assay type: in vivo
[3] = target: T1, human mu opioid receptor; test: Human mu GTP-Eu nucleotide exchange assay (agonist mediated activation); assay type: biochemical; settings: relative to DAMGO as full agonist; read-out: intrinsic activity (IA), bound GTP-Eu relative to DAMGO (IA=100)
[4] = test system: loperamide-induced delayed gastric emptying; test: Rat gastric emptying assay (reversal of loperamide-induced delay); assay type: in vivo; settings: administered orally, loperamide 1 mg/kg s.c.
Procedure: Assay 3: Rat Model of In Vivo Efficacy In this assay the efficacy of test compounds was evaluated in a model of gastrointestinal transit, which evaluates peripheral activity. This study was approved by the Institutional Animal Care and Use Committee at […]. and conformed to the Guide for the Care and Use of Laboratory Animals published by the National Academy of Sciences (©1996). Test compounds were evaluated in the rat gastric emptying assay to determine their ability to reverse loperamide-induced delayed gastric emptying. Rats were fasted up overnight prior to administration of test compounds or vehicle by intravenous, subcutaneous, intramuscular or oral routes of administration at doses ranging from 0.001 to about 30 milligrams/kilogram (mg/kg). The administration of test compound was followed by subcutaneous administration of loperamide at a dose of 1 mg/kg or vehicle. […] Gastric weight was then determined after removal of the ligatures. Data was analyzed using the GraphPad Prism Software package (GraphPad Software, Inc., San Diego, Calif.). Percent reversal curves were constructed by non-linear regression analysis using the sigmoidal dose response (variable slope) model and best-fit ID50 values were calculated. […]

[5] = Dynamic moisture sorption assessment; assay type: physicochemical; settings: for deliquescence: up to about 90% relative humidity at room temperature
Procedure: Dynamic moisture sorption (DMS) assessment was performed at 25° C. using a VTI atmospheric microbalance, SGA-100 system (VTI Corp., Hialeah, Fla. 33016). […] A typical DMS analysis consisted of three or four scans: ambient to 2% relative humidity (RH), 2% RH to 90% RH, 90% RH to 5% RH at a scan rate of 5% RH/step, and, in some case a second adsorption 2% RH to 90% RH. The mass was measured every two minutes and the RH was changed to the next value (±5% RH) when the mass of the sample was stable to within 0.02% for 5 consecutive points.

[6] = Thermogravimetric analysis (TGA); assay type: physicochemical; settings: temperatures below the melting point
Procedure: Thermogravimetric analysis (TGA) was performed using a TA Instruments Model Q-500 module. Data were collected and analyzed using TA Instruments Thermal Advantage for Q Series™ software. A sample weighing about 1-5 mg was placed in an aluminum pan on a platinum cradle and scanned from ambient temperature to 300° C. with a linear heating rate of 10° C./min. The balance and furnace chambers were purged with nitrogen during use. Representative TGA traces for samples of crystalline Form I and of a crystalline hydrochloride salt of compound 1 are also shown in FIGS. 2 and 7, respectively.

T1 sequence (P35372 whole entry): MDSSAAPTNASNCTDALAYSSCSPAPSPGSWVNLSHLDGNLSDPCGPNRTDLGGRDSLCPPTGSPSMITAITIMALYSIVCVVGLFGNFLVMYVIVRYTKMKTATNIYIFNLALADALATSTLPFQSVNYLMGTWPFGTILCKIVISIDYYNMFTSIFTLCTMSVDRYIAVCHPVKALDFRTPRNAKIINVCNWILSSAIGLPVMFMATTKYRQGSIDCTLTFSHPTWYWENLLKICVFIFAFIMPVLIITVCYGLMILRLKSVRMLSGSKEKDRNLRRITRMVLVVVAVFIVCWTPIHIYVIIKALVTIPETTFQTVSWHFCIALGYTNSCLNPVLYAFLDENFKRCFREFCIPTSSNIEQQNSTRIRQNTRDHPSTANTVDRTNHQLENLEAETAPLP

Compound: CCC1(CC)c2cc(C(N)=O)ccc2C[C@H](OC)[C@H]1NCC[C@H](CC1CCCCC1)C(=O)O [Compound 1, (S)-4-((2S,3S)-7-carbamoyl-1,1-diethyl-3-methoxy-1,2,3,4-tetrahydronaphthalen-2-ylamino)-2-cyclohexylmethyl-butyric acid]
- Ki [1]: 0.398 nM
- effect on motility of the gastrointestinal tract [2]: increase motility of the gastrointestinal (GI) tract
- Emax [3]: -8%
- ID50, dose required for 50% reversal of the effects of loperamide [4]: 0.09 mg/kg

Compound: CCC1(CC)c2cc(C(N)=O)ccc2C[C@H](OC)[C@H]1NCC[C@H](CC1CCCCC1)C(=O)O [crystalline compound 1, (S)-4-((2S,3S)-7-carbamoyl-1,1-diethyl-3-methoxy-1,2,3,4-tetrahydronaphthalen-2-ylamino)-2-cyclohexylmethyl-butyric acid]
- weight gain (moisture sorption) ([5]; 2% to 90% relative humidity, room temperature): less than 2.5%
- deliquescence [5]: neither crystalline compound 1 nor the crystalline hydrochloride salt of compound 1 is deliquescent

Compound: CCC1(CC)c2cc(C(N)=O)ccc2C[C@H](OC)[C@H]1NCC[C@H](CC1CCCCC1)C(=O)O [Form I, (S)-4-((2S,3S)-7-carbamoyl-1,1-diethyl-3-methoxy-1,2,3,4-tetrahydronaphthalen-2-ylamino)-2-cyclohexylmethyl-butyric acid]
- TGA weight loss [6]: no significant weight loss
- weight gain (moisture sorption) ([5]; 40% to 75% relative humidity): less than 1%

Compound: CCC1(CC)c2cc(C(N)=O)ccc2C[C@H](OC)[C@H]1NCC[C@H](CC1CCCCC1)C(=O)O.Cl [(S)-4-((2S,3S)-7-Carbamoyl-1,1-diethyl-3-methoxy-1,2,3,4-tetrahydronaphthalen-2-ylamino)-2-cyclohexylmethyl-butyric acid hydrochloride]
- appearance and flowability on exposure to humidity ([5]; about 2% to about 90% relative humidity at room temperature): retained their appearance and flowability
- deliquescence [5]: neither crystalline compound 1 nor the crystalline hydrochloride salt of compound 1 is deliquescent
